# Experimental data reported in patent US4649131A, “Growth hormone releasing factor analogs” (Hoffmann-La Roche Inc., priority 1985, dated 1987).
# No end group written: not given here.
# What was measured:
# rat pituitary cells = experiment: stimulation of growth hormone production in rat pituitary cells in tissue culture (RIA for rat growth hormone); format: cell-based
# Procedure: Biological activity of the synthetic GRF(1-44)NH2 was identical to the natural GRF(1-44)NH2 which was isolated from a human pancreatic tumor of an individual suffering from acrommegaly (Salk Institute standard hGRF-NH2 (NL-A-10)). The assay for biological activity, which is based on the ability to stimulate production of growth hormone in rat pituitary cells in tissue culture, was performed in the following manner.
# Pituitaries from 30-40 male Sprague-Dawley rats (175 g) were removed aseptically after decapitation. The anterior lobes were collected, washed 3 times in sterile Hepes buffer (0.025M) (pH 7.35) and dispersed at 37° C. in 20-30 ml Hepes buffer (pH 7.35) containing collagenase (4 mg per ml) and Dispase (Protease grade II, 2 mg per ml). After gentle 100-110-min. vortexing and trituration by Pasteur pipette, the dispersed cells were separated by centrifugation (150×g, 4 min) and re-suspended in Hepes buffer containing neuraminidase ([…]), and 200 µg/ml ethylenediaminetetraacetic acid (EDTA) disodium salt pH 7.35, for 10 min. The cells were washed twice with plating medium and plated on multiwell-plates (1.5×10^5 cells per ml) using the following defined medium: F-12/DMEM/BGJ (6:3:1) (Gibco: 430-1700/430-1600/320-2591) with 2 g BSA/1., 2.38 g Hepes/1.50 mg PSN antibiotic mixture (Gibco Laboratories), 10 mg/l transferrin (Sigma T2252) with 1.83 gm NazHCO3/l (Baker 3506). The medium in each well was supplemented either with a sample of the novel GRF peptide or natural GRF(1-44)-NH2 at concentrations ranging from 0.8 to 200 fmol. per ml. of medium. Control wells contained no supplement. Plating was done with this medium added with 2% fetal calf serum to ensure rapid fixation of the cells. On the fourth day the cells were washed twice with the defined medium without fetal calf serum. Finally 900 μl of defined medium was added to each well plus 100 μl of the same medium containing each individual treatment, in triplicate. After 4 hours of incubation the medium was collected and diluted as required to conduct radioimmunoassay (RIAs) for rat growth hormone. […]
# [1] = test system: release of growth hormone; conditions: Rivier and Vale et al., Nature 300, 276-278 (1982); cited from earlier work
compound,measurement,setting,value
"CC[C@H](C)[C@H](NC(=O)[C@H](C)NC(=O)[C@H](CC(=O)O)NC(=O)[C@H](C)NC(=O)[C@@H](N)Cc1ccc(O)cc1)C(=O)N[C@@H](Cc1ccccc1)C(=O)N[C@H](C(=O)N[C@@H](CC(N)=O)C(=O)N[C@@H](CO)C(=O)N[C@@H](Cc1ccc(O)cc1)C(=O)N[C@@H](CCCNC(=N)N)C(=O)N[C@@H](CCCCN)C(=O)N[C@H](C(=O)N[C@@H](CC(C)C)C(=O)NCC(=O)N[C@@H](CCC(N)=O)C(=O)N[C@@H](CC(C)C)C(=O)N[C@@H](CO)C(=O)N[C@@H](C)C(=O)N[C@@H](CCCNC(=N)N)C(=O)N[C@@H](CCCCN)C(=O)N[C@@H](CC(C)C)C(=O)N[C@@H](CC(C)C)C(=O)N[C@@H](CCC(N)=O)C(=O)N[C@@H](CC(=O)O)C(=O)N[C@H](C(=O)N[C@@H](CCSC)C(=O)N[C@@H](CO)C(=O)N[C@@H](CCCNC(=N)N)C(=O)N[C@@H](CCC(N)=O)C(=O)N[C@@H](CCC(N)=O)C(=O)NCC(=O)N[C@@H](CCC(=O)O)C(=O)N[C@@H](CO)C(=O)N[C@@H](CC(N)=O)C(=O)N[C@@H](CCC(N)=O)C(=O)N[C@@H](CCC(=O)O)C(=O)N[C@@H](CCCNC(=N)N)C(=O)NCC(=O)N[C@@H](C)C(=O)N[C@@H](CCCNC(=N)N)C(=O)N[C@@H](C)C(=O)N[C@@H](CCCNC(=N)N)C(=O)N[C@@H](CC(C)C)C(N)=O)[C@@H](C)CC)C(C)C)[C@@H](C)O [synthetic GRF(1-44)NH2, GRF(1-44)-NH2]",biological activity compared with natural GRF(1-44)NH2,rat pituitary cells; versus natural GRF(1-44)NH2 isolated from a human pancreatic tumor (Salk Institute standard NL-A-10),identical
GRF(1-29)-NH2,intrinsic activity and potency in vitro,[1],full intrinsic activity and potency
"YADAIFTNSYRKVLAQLSARKLLQDIMSR-NH2 [(Ala^15)GRF(1-29)NH2, [Ala^15]-hGRF(1-29)-NH2]",potency compared to GRF(1-44)NH2,"rat pituitary cells; relative to GRF(1-44)NH2, on a weight for weight basis, 4 hours of incubation",4.1 times
same,potency compared to GRF(1-29)NH2,"rat pituitary cells; relative to unsubstituted shortened GRF(1-29)NH2, 4 hours of incubation",5.1 times
